Measurements published in EP3807270B1, “NOVEL HETEROARYL HETEROCYCLYL COMPOUNDS FOR THE TREATMENT OF AUTOIMMUNE DISEASE” (F. Hoffmann-La Roche AG, priority 2018, dated 2019).

What was measured:
CYP2D6 = target: T1, CYP2D6 (Homo sapiens, UniProt P10635); assay: CYP inhibition assay in human liver microsome; type: in vitro ADME; conditions: human liver microsomes, probe dextromethorphan, 10µM test compound, dextromethorphan substrate, <0: not or weak inhibitor, read-out: CYP 2D6 inhibition %@10µM
T1 construct: tissue BD-Gentest 452117; host or cells: human liver microsomes
T1 sequence (P10635 whole entry): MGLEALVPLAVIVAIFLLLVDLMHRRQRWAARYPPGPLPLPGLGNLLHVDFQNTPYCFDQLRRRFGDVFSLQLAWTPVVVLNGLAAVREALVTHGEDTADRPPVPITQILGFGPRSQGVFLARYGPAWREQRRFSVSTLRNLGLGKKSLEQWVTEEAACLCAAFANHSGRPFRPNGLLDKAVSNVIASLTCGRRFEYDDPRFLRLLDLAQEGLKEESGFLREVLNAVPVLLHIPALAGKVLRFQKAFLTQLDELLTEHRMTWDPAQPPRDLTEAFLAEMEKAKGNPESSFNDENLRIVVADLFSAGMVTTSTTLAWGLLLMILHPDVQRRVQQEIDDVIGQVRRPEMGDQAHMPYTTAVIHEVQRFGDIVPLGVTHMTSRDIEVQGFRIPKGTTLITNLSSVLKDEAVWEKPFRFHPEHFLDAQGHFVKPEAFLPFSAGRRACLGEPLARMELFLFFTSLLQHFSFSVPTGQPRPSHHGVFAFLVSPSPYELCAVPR
In short: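 HLM mixed with CYP2D6 substrate, preincubated 10 min at 37 °C, started with NADPH regenerating system and run 10 min at 37 °C before acetonitrile quench. Metabolite measured by RapidFire MS/MS against D3-dextrorphan internal standard. % inhibition scaled between DMSO and concentrated-inhibitor controls.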

hTLR9 = target: T2, hTLR9 (Homo sapiens, UniProt Q9NR96); assay: HEK293-Blue-hTLR-9 cells assay (SEAP reporter, ODN2006 stimulation); type: cell-based; design: host or cells: HEK293 (HEK-Blue); conditions: HEK293-Blue-hTLR9 cells, ODN2006, 20 hrs; read-out: HEK/hTLR9 IC50
T2 sequence (Q9NR96 26-1032): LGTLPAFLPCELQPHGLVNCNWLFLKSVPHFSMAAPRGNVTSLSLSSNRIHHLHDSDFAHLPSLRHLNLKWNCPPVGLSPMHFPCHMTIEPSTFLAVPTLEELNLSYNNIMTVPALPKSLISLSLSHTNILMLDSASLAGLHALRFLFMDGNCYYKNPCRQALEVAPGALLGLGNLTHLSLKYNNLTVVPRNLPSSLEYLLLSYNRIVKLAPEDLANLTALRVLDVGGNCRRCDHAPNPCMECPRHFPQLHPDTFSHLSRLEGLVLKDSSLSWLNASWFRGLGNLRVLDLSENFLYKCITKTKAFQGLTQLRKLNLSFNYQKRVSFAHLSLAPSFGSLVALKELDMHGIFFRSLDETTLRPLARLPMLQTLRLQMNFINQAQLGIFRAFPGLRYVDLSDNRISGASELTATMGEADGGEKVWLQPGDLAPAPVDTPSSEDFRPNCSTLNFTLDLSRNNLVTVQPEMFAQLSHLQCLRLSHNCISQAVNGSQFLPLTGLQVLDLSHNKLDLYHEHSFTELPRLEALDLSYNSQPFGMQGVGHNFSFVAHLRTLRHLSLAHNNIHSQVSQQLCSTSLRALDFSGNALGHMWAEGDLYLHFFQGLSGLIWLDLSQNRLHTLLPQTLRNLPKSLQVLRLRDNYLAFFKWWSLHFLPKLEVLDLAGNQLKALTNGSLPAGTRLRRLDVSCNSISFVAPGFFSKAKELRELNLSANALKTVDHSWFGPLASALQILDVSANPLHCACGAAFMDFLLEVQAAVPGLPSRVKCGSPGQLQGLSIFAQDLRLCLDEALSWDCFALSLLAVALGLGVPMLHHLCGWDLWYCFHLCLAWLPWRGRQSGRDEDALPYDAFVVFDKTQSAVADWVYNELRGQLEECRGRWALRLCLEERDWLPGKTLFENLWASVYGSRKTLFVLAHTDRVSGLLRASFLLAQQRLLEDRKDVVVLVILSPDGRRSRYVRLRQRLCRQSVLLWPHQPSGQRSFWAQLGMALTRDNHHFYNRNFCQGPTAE
In short: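 HEK293-Blue-hTLR9 cells (250,000-450,000 cells/mL) in DMEM with 10% FBS were treated with serially diluted compound (1% DMSO final) plus ODN2006 for 20 hrs at 37 °C. Supernatant SEAP activity was measured with QUANTI-Blue substrate for 2 hrs at 37 °C, reading absorbance at 620-655 nm.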

inhibition at 10 min, 10 µM (CYP2D6) [%]	IC50 (hTLR9) [nM]	Compound
6	97	C[C@@H]1CN(c2ccc(C#N)c3ncccc23)C[C@H](CN2CCN(c3cc4c(cn3)C[C@H](C)NC4)CC2)O1 (single isomer, unassigned) [Example 76]
13	92	COC1CNCc2ccc(N3CCN(C[C@H]4CN(c5ccc(C#N)c6ncccc56)C[C@@H](C)O4)CC3)cc21 (stereo partly drawn) [Example 58, 5-[(2S,6R)-2-[[4-(4-methoxy-1,2,3,4-tetrahydroisoquinolin-6-yl)piperazin-1-yl]methyl]-6-methyl-morpholin-4-yl]quinoline-8-carbonitrile]
8.5	83	C[C@@H]1CN(c2ccc(C#N)c3ncccc23)C[C@H](CN2CCN(c3ccc4c(n3)CNCC4)CC2)O1 [Example 69, 5-[(2R,6S)-2-methyl-6-[[4-(5,6,7,8-tetrahydro-1,7-naphthyridin-2-yl)piperazin-1-yl]methyl]morpholin-4-yl]quinoline-8-carbonitrile]
13	48	C[C@@H]1CN(c2ccc(C#N)c3ncsc23)C[C@H](CN2CCN(c3cnc4c(c3)CNC4)CC2)O1 [Example 8, 7-[(2S,6R)-2-[[4-(6,7-dihydro-5H-pyrrolo[3,4-b]pyridin-3-yl)piperazin-1-yl]methyl]-6-methyl-morpholin-4-yl]-1,3-benzothiazole-4-carbonitrile]
12	114	C[C@@H]1CN(c2ccc(C#N)c3ncccc23)C[C@H](CN2CC3(C2)CN(c2cnc4c(c2)CCNC4)CCO3)O1 [Example 46, 5-[(2R,6S)-2-methyl-6-[[8-(5,6,7,8-tetrahydro-1,7-naphthyridin-3-yl)-5-oxa-2,8-diazaspiro[3.5]nonan-2-yl]methyl]morpholin-4-yl]quinoline-8-carbonitrile]
-10.5	90	C[C@@H]1CN(c2ccc(C#N)c3ncccc23)C[C@H](CN2CCCN(c3nc4c(s3)CNCC4)CC2)O1 [Example 33, 5-[(2R,6S)-2-methyl-6-[[4-(4,5,6,7-tetrahydrothiazolo[5,4-c]pyridin-2-yl)-1,4-diazepan-1-yl]methyl]morpholin-4-yl]quinoline-8-carbonitrile]
0.5	131	C[C@@H]1CN(c2ccc(C#N)c3nccnc23)C[C@H](CN2CCN(c3ccc4c(n3)CN[C@H]4C)CC2)O1 (single isomer, unassigned) [Example 78]
13	98	C[C@@H]1CN(c2ccc(C#N)c3ncccc23)C[C@H](CN2CCN(c3cc4c(cn3)CNC4)CC2)O1 [Example 18, 5-[(2S,6R)-2-[[4-(2,3-dihydro-1H-pyrrolo[3,4-c]pyridin-6-yl)piperazin-1-yl]methyl]-6-methyl-morpholin-4-yl] quinoline-8-carbonitrile]
6	84	C[C@@H]1CN(c2ccc(C#N)c3ncccc23)C[C@H](CN2CCN(c3cnc4c(c3)CN[C@@H]4C)CC2)O1 (single isomer, unassigned) [Example 68]
-4.5	52	C[C@@H]1CN(c2ccc(C#N)c3ncccc23)C[C@H](CN2CCN(c3cnc4c(c3)CNCC4)CC2)O1 [Example 21, 5-[(2R,6S)-2-methyl-6-[[4-(5,6,7,8-tetrahydro-1,6-naphthyridin-3-yl)piperazin-1-yl]methyl]morpholin-4-yl]quinoline-8-carbonitrile]
7.5	63	C[C@@H]1CN(c2ccc(C#N)c3ncccc23)C[C@H](CN2CCN(c3cc4c(cn3)CNCC4)CC2)O1 [Example 19, 5-[(2R,6S)-2-methyl-6-[[4-(5,6,7,8-tetrahydro-2,7-naphthyridin-3-yl)piperazin-1-yl]methyl]morpholin-4-yl]quinoline-8-carbonitrile]
7	100	C[C@@H]1CN(c2ccc(C#N)c3nccnc23)C[C@H](CN2CCN(c3cc4c(cn3)CCNC4)CC2)O1 [Example 80, 8-[(2R,6S)-2-methyl-6-[[4-(5,6,7,8-tetrahydro-2,6-naphthyridin-3-yl)piperazin-1-yl]methyl]morpholin-4-yl]quinoxaline-5-carbonitrile]
24	69	C[C@@H]1CN(c2ccc(C#N)c3ncccc23)C[C@H](CN2CC3[C@H](C2)OCCN3c2ccc3c(n2)CCNC3)O1 (stereo in doubt) [Example 53, cis-5-[(2R,6S)-2-methyl-6-[[4-(5,6,7,8-tetrahydro-1,6-naphthyridin-2-yl)-2,3,4a,5,7,7a-hexahydropyrrolo[3,4-b][1,4]oxazin-6-yl]methyl]morpholin-4-yl]quinoline-8-carbonitrile]
17.5	99	C[C@@H]1CN(c2ccc(C#N)c3ncccc23)C[C@H](CN2CCC(Nc3ncc4c(n3)CNC4)C2)O1 (stereo partly drawn) [Example 32, 5-[(2S,6R)-2-[[3-(6,7-dihydro-5H-pyrrolo[3,4-d]pyrimidin-2-ylamino)pyrrolidin-1-yl]methyl]-6-methyl-morpholin-4-yl]quinoline-8-carbonitrile]
4.5	98	C[C@@H]1CN(c2ccc(C#N)c3ncccc23)C[C@H](CN2CCN(c3cnc4c(n3)CCNC4)CC2)O1 [Example 17, 5-[(2R,6S)-2-methyl-6-[[4-(5,6,7,8-tetrahydropyrido[3,4-b]pyrazin-2-yl)piperazin-1-yl]methyl]morpholin-4-yl]quinoline-8-carbonitrile]
10.5	69	C[C@@H]1CN(c2ccc(C#N)c3ncccc23)C[C@H](CN2CC3(C2)CN(c2cnc4c(n2)CCNC4)CCO3)O1 [Example 50, 5-[(2R,6S)-2-methyl-6-[[8-(5,6,7,8-tetrahydropyrido[3,4-b]pyrazin-2-yl)-5-oxa-2,8-diazaspiro [3.5]nonan-2-yl]methyl]morpholin-4-yl] quinoline-8-carbonitrile]
-12	56	C[C@@H]1CN(c2ccc(C#N)c3ncccc23)C[C@H](CN2CC3(C2)CN(c2cc4c(cn2)CCNC4)CCO3)O1 [Example 48, 5-[(2R,6S)-2-methyl-6-[[8-(5,6,7,8-tetrahydro-2,6-naphthyridin-3-yl)-5-oxa-2,8-diazaspiro[3.5]nonan-2-yl]methyl]morpholin-4-yl]quinoline-8-carbonitrile]
-6	58	C[C@@H]1CN(c2ccc(C#N)c3ncccc23)C[C@H](CN2CCN(c3ccc4c(n3)CCNC4)CC2)O1 [Example 14, 5-[(2R,6S)-2-methyl-6-[[4-(5,6,7,8-tetrahydro-1,6-naphthyridin-2-yl)piperazin-1-yl]methyl]morpholin-4-yl]quinoline-8-carbonitrile]
-8	90	C[C@@H]1CN(c2ccc(C#N)c3nccnc23)C[C@H](CN2CCN(c3cnc4c(c3)CNC4)CC2)O1 [Example 25, 8-[(2S,6R)-2-[[4-(6,7-dihydro-5H-pyrrolo[3,4-b]pyridin-3-yl)piperazin-1-yl]methyl]-6-methyl-morpholin-4-yl] quinoxaline-5-carbonitrile]
15	89	C[C@@H]1CN(c2ccc(C#N)c3ncccc23)C[C@H](CN2CCN(c3ccc4c(c3)CNC4)CC2)O1 [Example 7, 5-[(2S,6R)-2-[(4-isoindolin-5-ylpiperazin-1-yl)methyl]-6-methyl-morpholin-4-yl] quinoline-8-carbonitrile]
3.5	59	C[C@@H]1CN(c2ccc(C#N)c3ncccc23)C[C@H](CN2CCN(c3cnc4c(c3)CCNC4)CC2)O1 [Example 23, 5-[(2R,6S)-2-methyl-6-[[4-(5,6,7,8-tetrahydro-1,7-naphthyridin-3-yl)piperazin-1-yl]methyl]morpholin-4-yl]quinoline-8-carbonitrile]
